Test results: PMC7313430, “Heme-Dependent ER Stress Apoptosis: A Mechanism for the Selective Toxicity of the Dihydroartemisinin, NSC735847, in Colorectal Cancer Cells” (Frontiers in Oncology, 2020)

Tests used:
[1] = tested on: FHC cells; test: MTS cell viability assay, non-tumorigenic colon cells; assay type: cell-based; settings: Homo sapiens, 24 h treatment
Procedure: (§1) The human colon cancer cell lines HT29 and HCT116 were cultured in McCoy's 5A medium (Sigma Aldrich, St. Louis, MO) containing 10% heat-inactivated fetal bovine serum (FBS), penicillin (100 units/ml), and streptomycin (100 μg/ml). The non-tumorigenic colon cell line, FHC, was cultured in DMEM: F12 (1:1) medium supplemented with 10% heat inactivated FBS, 25 mM HEPES (Thermo Fisher Scientific Inc., IL), 10 ng/ml cholera toxin (Sigma Aldrich, St. Louis, MO), 0.005 mg/ml insulin (Thermo Fisher Scientific Inc., IL), 0.005 mg/ml, transferrin (Sigma Aldrich, St. Louis, MO), 100 ng/ml hydrocortisone (Sigma Aldrich, St. Louis, MO), 20 ng/mL human recombinant epidermal growth factor (Thermo Fisher Scientific Inc., IL), 100 units/ml penicillin, and 100 μg/ml streptomycin.
(§2) Cells were cultured in 96-well-plates for 48 h before treatment. Serum-free media containing different agents was added to the cells at the concentration and time period described in the figure legend. MTS reagent (Promega, Madison, WI) was then added to each well and the absorbance was measured at 495 nm as directed by the manufacturer. In the presence of MTS reagent, the absorbance reading is proportional to the number of viable cells. The half-maximal inhibitory concentration (IC50) of the tested compounds is the concentration that reduces the viability of cells by 50%. IC50 was calculated after 24 h of treatment ([30], [31]) as described previously ([32]–[34]) from dose-response curves (log drug concentration vs. percentage viability from untreated cells) generated by non-linear regression analysis with GraphPad Prism 5 software (GraphPad Software, San Diego, California).

[2] = tested on: HT29 cells; test: MTS cell viability assay, colon cancer cells HT29; assay type: cell-based, human; settings: for IC50: Homo sapiens, HT-29, MTS viability, 24 h treatment; for selective cytotoxicity toward colon cancer cells vs FHC: HT-29/HCT-116 compared to FHC; for effect of pretreatment on NSC735847-mediated cell death: HT29, MTS, pretreatment with the agent, then NSC735847 (10 μM; 5 μM for HTF) 24 h
Procedure: as §1, §2

[3] = tested on: HCT116 cells; test: MTS cell viability assay, colon cancer cells HCT116; assay type: cell-based, human; settings: for IC50: Homo sapiens, HCT-116, MTS viability, 24 h treatment; for cytotoxic activity against HCT-116 cells: 3.1-25 μM
Procedure: as §1, §2

[4] = tested on: caspase 3/7 activity in HT29 cells; test: Caspase-Glo 3/7 activity assay in HT29; assay type: cell-based, human; settings: for tumor selectivity of apoptosis induction (caspase 3/7, words): 16 h, HT29 compared to HCT-116 and FHC; for effect of pretreatment on NSC735847-induced caspase 3/7 activity: HT29, pretreatment 1 h (GSK 10 μM, SAL 50 μM), then 10 μM NSC735847 16 h
Procedure: The cells were plated in white-walled 96-well-plates and then they were cultured at 37°C for 48 h. Serum-free culture medium containing the appropriate concentration of different agents was added to the cells for the indicated period of time. Caspase-Glo 3/7 reagent (Promega, Madison, WI) was added to each well and luminescence was detected as directed by the manufacturer. The Caspase-Glo 3/7 kit measures the activity of the executioner caspases 3 and 7 using the luminogenic substrate (Z-DEVD-aminoluciferin) as substrate.

[5] = tested on: P-PERK, P-eIF2α, CHOP10, PARP, caspase-3, ferritin in HT29 cells; test: Western blot of ER stress and apoptosis proteins in HT29; assay type: cell-based, human; settings: for effect of pretreatment on NSC735847-induced CHOP10 expression: HT29, pretreatment (GSK 10 μM, salubrinal 50 μM, SA 10 mM), then 10 μM NSC735847 8 h
Procedure: Western blot analysis was conducted as described previously ([35]). Briefly, the cells were cultured in 100 mm dishes for 48 h before treatment. The cells were then treated as described in the figure legends. For vehicle-treated samples, DMSO was added to serum-free culture medium at a maximum concentration of 0.1% (v/v). After experimentation, the cells were washed twice with phosphate buffer saline (PBS) and then 100 μl of Triton lysis buffer [25 mM HEPES, 100 mM NaCl, 1 mM EDTA, 10% (v/v) glycerol, 1% (v/v) Triton X-100], containing protease and […] inhibitors, was added to the cells. Protein concentrations were determined by using BCA reagents (Thermo Fisher Scientific Inc., IL). Equal concentrations of each sample were loaded onto SDS–PAGE gels and protein bands transferred to nitrocellulose membranes using semi-dry transfer cells (TRANS-BLOTSD; Bio-Rad Laboratories, Hercules, CA). The membranes were incubated for 2 h at room temperature in Odyssey blocking buffer (LI-COR Biosciences, Lincoln, NE). Membranes were then incubated overnight at 4C with primary antibody followed by 1 h of incubation at room temperature with secondary antibody. All primary antibodies were used at a dilution of 1:1,000 except anti-GAPDH and anti-CHOP10 antibodies which were used at 1:10,000 and 1:500 dilutions, respectively. All secondary antibodies were used at a dilution of 1:15,000. Protein bands were visualized using Odyssey® CLx digital fluorescence imaging system (LI-COR, Lincoln, Nebraska). Band intensities were quantified by using ImageJ software ([36]).

[6] = tested on: reactive oxygen species in HT29 cells; test: Oxidative stress measurement with CM-H2DCFDA (DCF); assay type: cell-based, human; settings: HT29, 0.25 mM Trolox 2 h, then 10 μM NSC735847 8 h
Procedure: Oxidative stress was measured in cultured cells by using the probe, chloromethyl-2′,7′ dichlorodihydrofluorescein diacetate (CM-H2DCFDA or DCF) purchased from Life Technologies (Grand Island, NY). […] The cells were loaded with 5 μM DCF in phenol red-free, serum-free medium for 30 min and then the cells were treated with the appropriate drug for the indicated period of time. The cells were then trypsinized and resuspended in serum-containing, phenol red-free medium. The fluorescence of DCF was measured using an Accuri C6 flow cytometer (BD Accuri Cytometers, Ann Arbor, MI) at an excitation wavelength of 488 and emission of 533 ± 30 nm.

[7] = MTS, 24 h, single agents or combinations

CC1CCC2C(C)C(OCC(COC3OC4OC5(C)CCC6C(C)CCC(C3C)C46OO5)NNC(=O)c3ccncc3)OC3OC4(C)CCC1C32OO4 (stereo not drawn) [compound (2)]
IC50 [1]: 23.2 ± 1.04 µM
IC50 [2]: 19.6 ± 1.06 µM
selective cytotoxicity toward colon cancer cells vs FHC ([2]; MTS, 24 h): not selectively cytotoxic toward either colon cancer cell line
IC50 [3]: 22.1 ± 1.06 µM
tumor selectivity of apoptosis induction (caspase 3/7, words) [4]: increase in apoptosis in HT29 compared to HCT-116 and FHC cells

O=C(CC(c1ccccc1)c1ccccc1)Cn1ccnc1 [QC-308, reference compound]
effect of pretreatment on NSC735847-mediated cell death [2]: increased the cytotoxicity of NSC735847

CC(=O)N(O)CCCCCNC(=O)CCC(=O)N(O)CCCCCNC(=O)CCC(=O)N(O)CCCCCN [DFO, deferoxamine, reference compound]
effect of pretreatment on NSC735847-mediated cell death [2]: did not prevent NSC735847-mediated cell death
effect of pretreatment on NSC735847-mediated ferritin protein expression ([5]; HT29, 100 μM DFO 4 h, then 10 μM NSC735847 24 h): inhibited NSC735847-mediated ferritin expression

O=C(/C=C/c1ccccc1)NC(NC(=S)Nc1cccc2cccnc12)C(Cl)(Cl)Cl (stereo not drawn) [salubrinal, reference compound]
effect of pretreatment on NSC735847-mediated cell death [2]: blocked
effect of pretreatment on NSC735847-induced caspase 3/7 activity [4]: blocked
effect of pretreatment on NSC735847-induced CHOP10 expression [5]: blocked CHOP10 expression

HTF: iron-loaded transferrin molecule
effect of pretreatment on NSC735847-mediated cell death [2]: did not enhance the killing effect of NSC735847

O=C1[O][Pt]2([NH][C@@H]3CCCC[C@H]3[NH]2)[O]C1=O [OX, oxaliplatin, reference compound]
cell death / survival of HT29 cells [2, 7]: induced death in a concentration-dependent manner
cell death / survival of HCT116 cells [3, 7]: induced death in a concentration-dependent manner

CC(=O)CC(=O)CCC(=O)O [succinylacetone, reference compound]
effect of pretreatment on NSC735847-mediated cell death [2]: rescued the cells from the cytotoxic effects of NSC735847
effect of pretreatment on NSC735847-induced CHOP10 expression [5]: blunted NSC735847-induced CHOP10 expression

CC1CCC2C(C)C(OCC(COC3OC4OC5(C)CCC6C(C)CCC(C3C)C46OO5)N3CCCCC3)OC3OC4(C)CCC1C32OO4 (stereo not drawn) [(4)]
IC50 [1]: > 25 µM
IC50 [2]: > 25 µM
selective cytotoxicity toward colon cancer cells vs FHC ([2]; MTS, 24 h): more cytotoxic toward HT-29 than FHC cells
IC50 [3]: > 25 µM
cytotoxic activity against HCT-116 cells ([3]; MTS, 24 h): inactive
tumor selectivity of apoptosis induction (caspase 3/7, words) [4]: preferentially induced apoptosis in HT-29 compared to FHC cells

CC1CCC2C(C)C(OCC(COC3OC4OC5(C)CCC6C(C)CCC(C3C)C46OO5)N3CCOCC3)OC3OC4(C)CCC1C32OO4 (stereo not drawn) [compound (1)]
IC50 [1]: > 25 µM
IC50 [2]: > 25 µM
selective cytotoxicity toward colon cancer cells vs FHC ([2]; MTS, 24 h): not selectively cytotoxic toward either colon cancer cell line
IC50 [3]: > 25 µM
tumor selectivity of apoptosis induction (caspase 3/7, words) [4]: did not exhibit tumor selectivity

Cc1c(C)c2c(c(C)c1O)CCC(C)(C(=O)O)O2 (stereo not drawn) [Trolox, reference compound]
effect of pretreatment on NSC735847-mediated cell death [2]: did not rescue the cells from NSC735847-induced cytotoxicity
effect of pretreatment on NSC735847-induced oxidative stress [6]: significant reduction in oxidative stress

CC1CCC2C(C)C(OCC(COC3OC4OC5(C)CCC6C(C)CCC(C3C)C46OO5)NCc3ccccc3)OC3OC4(C)CCC1C32OO4 (stereo not drawn) [(5)]
IC50 [1]: > 25 µM
IC50 [2]: 15.2 ± 1.12 µM
selective cytotoxicity toward colon cancer cells vs FHC ([2]; MTS, 24 h): more cytotoxic toward HT-29 than FHC cells
IC50 [3]: > 25 µM
cytotoxic activity against HCT-116 cells ([3]; MTS, 24 h): inactive
tumor selectivity of apoptosis induction (caspase 3/7, words) [4]: preferentially induced apoptosis in HT-29 compared to FHC cells

Cn1cc(-c2ccc3c(c2)CCN3C(=O)Cc2cccc(C(F)(F)F)c2)c2c(N)ncnc21 [GSK2606414, 7-methyl-5-(1-{[3-(trifluoromethyl)phenyl]acetyl}-2,3-dihydro-1H-indol-5-yl)-7H-p yrrolo[2,3-d]pyrimidin-4-amine, reference compound]
effect of pretreatment on NSC735847-mediated cell death [2]: suppressed NSC735847-mediated cell death
effect of pretreatment on NSC735847-induced caspase 3/7 activity [4]: inhibited caspase 3/7 activity
effect of pretreatment on NSC735847-induced PERK phosphorylation ([5]; HT29, 10 μM pretreatment 1 h, then 10 μM NSC735847 1 h): decreased the phosphorylation of PERK
effect of pretreatment on NSC735847-induced CHOP10 expression [5]: decreased
